Source: US20250143297A1, “Arthropod Control Compositions” (FIRMENICH SA, priority 2022, published 2025)

Tests used:
Anopheles gambiae = test: Warm Body assay, repellence of mosquito landing on treated warm body; type: in vivo
Experimental: Anopheles gambiae is also a model organism as it is anthropophilic and transmits malaria.
The controlling effect according to the present invention was assessed using an adapted Warm Body assay as defined in Kröber T, Kessler S, Frei J, Bourquin M, Guerin PM. 2010. J Am Mosq Control Assoc. 26:381-386. In this in-vitro assay the number of mosquito landing on a warm body, simulating an attractive host treated with the tested stimuli, was measured in order to assess the repellence effect.
On the sandblasted glass Petri dish covering the warm body (28.3 cm^2), 100 μL of the compounds diluted at different concentrations in ethanol was applied. The number of mosquito landing on the warm body was counted for each stimulus and pure ethanol (solvent) as control.

Aedes aegypti [1] = test: as above; type: in vivo; details: for reduction of the number of mosquito landing: since the dose of 0.0016%
Aedes aegypti [2] = test: Arm-in-cage test on human volunteers; type: in vivo; details: arm treated with 20%, three human volunteers
Experimental: The controlling effect, repellence & spatial repellence, according to the present invention is also determined according to an arm in the box method adapted from the WHO Guidelines for efficacy repellents testing of mosquito for human skin (WHO/CDS/NTD/WHOPES/2009.4). The readiness of 100 hungry female mosquitoes A. aegypti to a test substance is assessed by comparing the results of an untreated arm to a treated in when inserted into the cage (40×40×40 cm) for 30 seconds (negative control) three times. Further information is provided in the accompanying examples.
Arm-In-Cage Test is the Large-Scale Test Used to Assess on Human Volunteer the Repellent Efficacy on Mosquitoes.
The Arm in the box method was adapted from the WHO Guidelines for efficacy testing of mosquito repellents for human skin (WHO/CDS/NTD/WHOPES/2009.4). The readiness of 100 hungry female mosquitoes A. aegypti to probe is assessed by inserting an untreated arm into the cage (40×40×40 cm) for 30 seconds (negative control) three times (once at the beginning, once at the fourth hour and once at the eighth hour), to determine probing activity. Then, the product is applied onto the skin of the forearm of a human volunteer (1 mL per 600 cm^2) and after 5 minutes, this arm is inserted into the cage and exposed for 3 minutes. The assay take place in temperature (27±2° C.) and humidity (80±10% RH) regulated room on three different volunteers.

Ixodes ricinus = test: Warm Plate Assay, tick repellence

SMILES	Percentage of repellence of mosquitoes Anopheles gambiae landing on the warm body (Anopheles gambiae; 4.47 mg/mL) [%]	Percentage of repellence of mosquitoes Anopheles gambiae landing on the warm body (Anopheles gambiae; 10 mg/mL) [%]	Percentage of repellence of mosquitoes Aedes aegypti landing on the warm body (Aedes aegypti [1]; 0.016 mg/mL) [%]	Percentage of repellence of mosquitoes Aedes aegypti landing on the warm body (Aedes aegypti [1]; 0.4 mg/mL) [%]	Percentage of repellence of mosquitoes Aedes aegypti landing on the warm body (Aedes aegypti [1]; 10 mg/mL) [%]	Percentage of repellence of mosquitoes Aedes aegypti landing on the warm body (Aedes aegypti [1]; 0.0032 mg/mL) [%]	Percentage of repellence of mosquitoes Aedes aegypti landing on the warm body (Aedes aegypti [1]; 0.08 mg/mL) [%]	Percentage of repellence of mosquitoes Aedes aegypti landing on the warm body (Aedes aegypti [1]; 2 mg/mL) [%]	further results
CC(C)(C)c1ccc(CCC=O)cc1 [compound 294, 3-(4-tert-butylphenyl)propanal]	96	96	57	54	96				Percentage of repellence of mosquitoes Anopheles gambiae landing on the warm body (Anopheles gambiae; 0.178 mg/mL): 42%; Percentage of repellence of mosquitoes Anopheles gambiae landing on the warm body (Anopheles gambiae; 0.267 mg/mL): 14%; Percentage of repellence of mosquitoes Anopheles gambiae landing on the warm body (Anopheles gambiae; 0.4 mg/mL): 55%; reduction of the number of mosquito landing (Aedes aegypti [1]): by half
CC(C)(O)Cc1ccc(CCC=O)cc1 [compound 867, 3-[4-(2-hydroxy-2-methylpropyl)phenyl]propanal]			13	27	81				
COc1ccc(CC(C)C=O)cc1 (stereo not shown) [compound 251, 3-(4-methoxyphenyl)-2-methylpropanal]	100	96	0	79	89	0	40	96	percentage of repellence compared to untreated arm (mean ± SD) (Aedes aegypti [2]; 5 min post-application): 100% ±; percentage of repellence compared to untreated arm (mean ± SD) (Aedes aegypti [2]; 1 h post-application): 99.84% ±; percentage of repellence compared to untreated arm (mean ± SD) (Aedes aegypti [2]; 2 h post-application): 98.82% ±; percentage of repellence compared to untreated arm (mean ± SD) (Aedes aegypti [2]; 3 h post-application): 95.59% ±; percentage of repellence compared to untreated arm (mean ± SD) (Aedes aegypti [2]; 4 h post-application): 87.3% ±; percentage of repellence compared to untreated arm (mean ± SD) (Aedes aegypti [2]; 5 h post-application): 81.02% ±; percentage of repellence compared to untreated arm (mean ± SD) (Aedes aegypti [2]; 6 h post-application): 73.75% ±; percentage of repellence compared to untreated arm (mean ± SD) (Aedes aegypti [2]; 7 h post-application): 65.56% ±; percentage of repellence compared to untreated arm (mean ± SD) (Aedes aegypti [2]; 8 h post-application): 64.04% ±; Percentage of repellence of mosquitoes Aedes aegypti landing on the warm body (Aedes aegypti [1]; 0.0071 mg/mL): 0%; Percentage of repellence of mosquitoes Aedes aegypti landing on the warm body (Aedes aegypti [1]; 0.0357 mg/mL): 61%; Percentage of repellence of mosquitoes Aedes aegypti landing on the warm body (Aedes aegypti [1]; 0.053 mg/mL): 54%; Percentage of repellence of mosquitoes Aedes aegypti landing on the warm body (Aedes aegypti [1]; 0.119 mg/mL): 52%; Percentage of repellence of mosquitoes Aedes aegypti landing on the warm body (Aedes aegypti [1]; 0.178 mg/mL): 71%; Percentage of repellence of mosquitoes Aedes aegypti landing on the warm body (Aedes aegypti [1]; 0.267 mg/mL): 97%; Percentage of repellence of mosquitoes Aedes aegypti landing on the warm body (Aedes aegypti [1]; 0.598 mg/mL): 93%; Percentage of repellence of mosquitoes Aedes aegypti landing on the warm body (Aedes aegypti [1]; 0.89 mg/mL): 99%; Percentage of repellence of mosquitoes Aedes aegypti landing on the warm body (Aedes aegypti [1]; 4.47 mg/mL): 97%
CC(C)c1cccc(C(C)CC=O)c1 (stereo not shown) [compound 1389, 3-(3-propan-2-ylphenyl)butanal]	58	96	0	81	90	11	53	87	Percentage of repellence of mosquitoes Aedes aegypti landing on the warm body (Aedes aegypti [1]; 0.0357 mg/mL): 8%; Percentage of repellence of mosquitoes Aedes aegypti landing on the warm body (Aedes aegypti [1]; 0.053 mg/mL): 74%; Percentage of repellence of mosquitoes Aedes aegypti landing on the warm body (Aedes aegypti [1]; 0.178 mg/mL): 30%; Percentage of repellence of mosquitoes Aedes aegypti landing on the warm body (Aedes aegypti [1]; 0.89 mg/mL): 88%; Percentage of repellence of mosquitoes Aedes aegypti landing on the warm body (Aedes aegypti [1]; 4.47 mg/mL): 84%
COC(C)(C)c1ccc(CCC=O)cc1 [compound 681, 3-[4-(2-methoxy-2-propanyl)phenyl]propanal]			0	49	92	0	31	89	Percentage of repellence of ticks Ixodes ricinus on the warm plate (Ixodes ricinus; 0.08 mg/mL): 0.0%; Percentage of repellence of ticks Ixodes ricinus on the warm plate (Ixodes ricinus; 0.4 mg/mL): 13.3%; Percentage of repellence of ticks Ixodes ricinus on the warm plate (Ixodes ricinus; 2 mg/mL): 92.3%; Percentage of repellence of ticks Ixodes ricinus on the warm plate (Ixodes ricinus; 10 mg/mL): 92.0%; repellence of ticks Ixodes ricinus (Ixodes ricinus; 0.2% of stimulus applied): above 90%; repellence of ticks Ixodes ricinus (Ixodes ricinus; 1% of stimulus applied): above 90%
Cc1cc(C(C)(C)C)ccc1CCC=O [compound 859, 3-[2-methyl-4-(2-methyl-2-propanyl)phenyl] propanal]			21	65	98				
COC(C)(C)c1ccc(CCC=O)c(C)c1 [compound 875, 3-[4-(2-methoxy-2-propanyl)-2-methylphenyl]propanal]	97	100	60	81	96	39	24	81	Percentage of repellence of mosquitoes Anopheles gambiae landing on the warm body (Anopheles gambiae; 0.178 mg/mL): 69%; Percentage of repellence of mosquitoes Anopheles gambiae landing on the warm body (Anopheles gambiae; 0.267 mg/mL): 66%; Percentage of repellence of mosquitoes Anopheles gambiae landing on the warm body (Anopheles gambiae; 0.4 mg/mL): 93%; mosquitoes repelled (Anopheles gambiae; lowest concentration tested, 0.0178%): > 60%; reduction of the number of mosquito landing (Aedes aegypti [1]): by half
